Results from ChEMBL document CHEMBL4393657, “Tetrazole hybrids and their antifungal activities” (2019).
Values after ≈ are worked out from the molar mass of the structure shown.

Experiments:
Assay type in all cases: functional
Candida parapsilosis = test: Antifungal activity against Candida parapsilosis ATCC 22019 assessed as reduction in fungal cell growth incubated for 48 hrs by broth microdilution method; settings: Lodderomyces parapsilosis, ATCC 22019, 48 h
Aspergillus niger = test: Antifungal activity against Aspergillus niger assessed as reduction in fungal cell growth incubated for 72 hrs by broth microdilution method
Pichia kudriavzevii = test: Antifungal activity against Candida krusei assessed as reduction in fungal cell growth incubated for 48 hrs by broth microdilution method
Candida albicans = test: Antifungal activity against Candida albicans assessed as reduction in fungal cell growth incubated for 48 hrs by broth microdilution method
Nakaseomyces glabratus = test: Antifungal activity against Candida glabrata assessed as reduction in fungal cell growth incubated for 48 hrs by broth microdilution method
Candida tropicalis = test: Antifungal activity against Candida tropicalis assessed as reduction in fungal cell growth incubated for 48 hrs by broth microdilution method
Cryptococcus neoformans = test: Antifungal activity against Cryptococcus neoformans LA314 assessed as reduction in fungal cell growth incubated for 48 hrs by broth microdilution method; settings: LA314, 48 h

MIC (Candida parapsilosis) [mg/L]	MIC (Aspergillus niger) [mg/L]	MIC (Pichia kudriavzevii) [mg/L]	MIC (Candida albicans) [mg/L]	MIC (Nakaseomyces glabratus) [mg/L]	MIC (Candida tropicalis) [mg/L]	MIC (Cryptococcus neoformans) [mg/L]	Compound
1 to 16 (≈ 1.8 to 28.9 µM)	1 to 16 (≈ 1.8 to 28.9 µM)	1 to 16 (≈ 1.8 to 28.9 µM)	1 to 16 (≈ 1.8 to 28.9 µM)	1 to 16 (≈ 1.8 to 28.9 µM)	1 to 16 (≈ 1.8 to 28.9 µM)	1 to 16 (≈ 1.8 to 28.9 µM)	CC(n1nnc(CCN2CCN(c3ccc([N+](=O)[O-])cc3)CC2)n1)C(O)(Cn1cncn1)c1ccc(F)cc1F (stereo unspecified)
1 to 16 (≈ 1.95 to 31.2 µM)	1 to 16 (≈ 1.95 to 31.2 µM)	1 to 16 (≈ 1.95 to 31.2 µM)	1 to 16 (≈ 1.95 to 31.2 µM)	1 to 16 (≈ 1.95 to 31.2 µM)	1 to 16 (≈ 1.95 to 31.2 µM)	1 to 16 (≈ 1.95 to 31.2 µM)	OC(Cn1cncn1)(Cn1nnc(CCN2CCN(c3ccc(F)cc3)CC2)n1)c1ccc(F)cc1F (stereo unspecified)
1 to 16 (≈ 1.9 to 30.4 µM)	1 to 16 (≈ 1.9 to 30.4 µM)	1 to 16 (≈ 1.9 to 30.4 µM)	1 to 16 (≈ 1.9 to 30.4 µM)	1 to 16 (≈ 1.9 to 30.4 µM)	1 to 16 (≈ 1.9 to 30.4 µM)	1 to 16 (≈ 1.9 to 30.4 µM)	COc1ccc(N2CCN(CCc3nnn(CC(O)(Cn4cncn4)c4ccc(F)cc4F)n3)CC2)cc1 (stereo unspecified)
0.5 to 16 (≈ 1.01 to 32.3 µM)	0.5 to 16 (≈ 1.01 to 32.3 µM)	0.5 to 16 (≈ 1.01 to 32.3 µM)	0.5 to 16 (≈ 1.01 to 32.3 µM)	0.5 to 16 (≈ 1.01 to 32.3 µM)	0.5 to 16 (≈ 1.01 to 32.3 µM)	0.5 to 16 (≈ 1.01 to 32.3 µM)	OC(Cn1cncn1)(Cn1nnnc1CCN1CCN(c2ccccc2)CC1)c1ccc(F)cc1F (stereo unspecified)
1 to 16 (≈ 1.89 to 30.2 µM)	1 to 16 (≈ 1.89 to 30.2 µM)	1 to 16 (≈ 1.89 to 30.2 µM)	1 to 16 (≈ 1.89 to 30.2 µM)	1 to 16 (≈ 1.89 to 30.2 µM)	1 to 16 (≈ 1.89 to 30.2 µM)	1 to 16 (≈ 1.89 to 30.2 µM)	OC(Cn1cncn1)(Cn1nnc(CCN2CCN(c3ccc(Cl)cc3)CC2)n1)c1ccc(F)cc1F (stereo unspecified)
0.25 to 16 (≈ 0.432 to 27.7 µM)	0.25 to 16 (≈ 0.432 to 27.7 µM)	0.25 to 16 (≈ 0.432 to 27.7 µM)	0.25 to 16 (≈ 0.432 to 27.7 µM)	0.25 to 16 (≈ 0.432 to 27.7 µM)	0.25 to 16 (≈ 0.432 to 27.7 µM)	0.25 to 16 (≈ 0.432 to 27.7 µM)	C[C@H](n1nnc(CCN2CCN(c3c(Cl)cccc3Cl)CC2)n1)[C@](O)(Cn1cncn1)c1ccc(F)cc1F
1 to 16 (≈ 1.96 to 31.3 µM)	1 to 16 (≈ 1.96 to 31.3 µM)	1 to 16 (≈ 1.96 to 31.3 µM)	1 to 16 (≈ 1.96 to 31.3 µM)	1 to 16 (≈ 1.96 to 31.3 µM)	1 to 16 (≈ 1.96 to 31.3 µM)	1 to 16 (≈ 1.96 to 31.3 µM)	CC(n1nnc(CCN2CCN(c3ccccn3)CC2)n1)C(O)(Cn1cncn1)c1ccc(F)cc1F (stereo unspecified)
1 to 16 (≈ 1.89 to 30.2 µM)	1 to 16 (≈ 1.89 to 30.2 µM)	1 to 16 (≈ 1.89 to 30.2 µM)	1 to 16 (≈ 1.89 to 30.2 µM)	1 to 16 (≈ 1.89 to 30.2 µM)	1 to 16 (≈ 1.89 to 30.2 µM)	1 to 16 (≈ 1.89 to 30.2 µM)	OC(Cn1cncn1)(Cn1nnc(CCN2CCN(c3ccccc3Cl)CC2)n1)c1ccc(F)cc1F (stereo unspecified)
0.5 to 16 (≈ 0.902 to 28.9 µM)	0.5 to 16 (≈ 0.902 to 28.9 µM)	0.5 to 16 (≈ 0.902 to 28.9 µM)	0.5 to 16 (≈ 0.902 to 28.9 µM)	0.5 to 16 (≈ 0.902 to 28.9 µM)	0.5 to 16 (≈ 0.902 to 28.9 µM)	0.5 to 16 (≈ 0.902 to 28.9 µM)	CC(n1nnnc1CCN1CCN(c2ccc([N+](=O)[O-])cc2)CC1)C(O)(Cn1cncn1)c1ccc(F)cc1F (stereo unspecified)
0.12 to 16 (≈ 0.227 to 30.3 µM)	0.12 to 16 (≈ 0.227 to 30.3 µM)	0.12 to 16 (≈ 0.227 to 30.3 µM)	0.12 to 16 (≈ 0.227 to 30.3 µM)	0.12 to 16 (≈ 0.227 to 30.3 µM)	0.12 to 16 (≈ 0.227 to 30.3 µM)	0.12 to 16 (≈ 0.227 to 30.3 µM)	C[C@H](n1nnnc1CCN1CCN(c2ccc(F)cc2)CC1)[C@](O)(Cn1cncn1)c1ccc(F)cc1F
0.25 to 16 (≈ 0.46 to 29.4 µM)	0.25 to 16 (≈ 0.46 to 29.4 µM)	0.25 to 16 (≈ 0.46 to 29.4 µM)	0.25 to 16 (≈ 0.46 to 29.4 µM)	0.25 to 16 (≈ 0.46 to 29.4 µM)	0.25 to 16 (≈ 0.46 to 29.4 µM)	0.25 to 16 (≈ 0.46 to 29.4 µM)	C[C@H](n1nnc(CCN2CCN(c3cccc(Cl)c3)CC2)n1)[C@](O)(Cn1cncn1)c1ccc(F)cc1F
0.5 to 16 (≈ 0.948 to 30.3 µM)	0.5 to 16 (≈ 0.948 to 30.3 µM)	0.5 to 16 (≈ 0.948 to 30.3 µM)	0.5 to 16 (≈ 0.948 to 30.3 µM)	0.5 to 16 (≈ 0.948 to 30.3 µM)	0.5 to 16 (≈ 0.948 to 30.3 µM)	0.5 to 16 (≈ 0.948 to 30.3 µM)	CC(n1nnnc1CCN1CCN(c2ccc(F)cc2)CC1)C(O)(Cn1cncn1)c1ccc(F)cc1F (stereo unspecified)
0.12 to 16 (≈ 0.222 to 29.7 µM)	0.12 to 16 (≈ 0.222 to 29.7 µM)	0.12 to 16 (≈ 0.222 to 29.7 µM)	0.12 to 16 (≈ 0.222 to 29.7 µM)	0.12 to 16 (≈ 0.222 to 29.7 µM)	0.12 to 16 (≈ 0.222 to 29.7 µM)	0.12 to 16 (≈ 0.222 to 29.7 µM)	COc1ccccc1N1CCN(CCc2nnnn2[C@@H](C)[C@](O)(Cn2cncn2)c2ccc(F)cc2F)CC1
0.5 to 16 (≈ 0.887 to 28.4 µM)	0.5 to 16 (≈ 0.887 to 28.4 µM)	0.5 to 16 (≈ 0.887 to 28.4 µM)	0.5 to 16 (≈ 0.887 to 28.4 µM)	0.5 to 16 (≈ 0.887 to 28.4 µM)	0.5 to 16 (≈ 0.887 to 28.4 µM)	0.5 to 16 (≈ 0.887 to 28.4 µM)	OC(Cn1cncn1)(Cn1nnnc1CCN1CCN(c2cccc(C(F)(F)F)c2)CC1)c1ccc(F)cc1F (stereo unspecified)
1 to 16 (≈ 1.77 to 28.3 µM)	1 to 16 (≈ 1.77 to 28.3 µM)	1 to 16 (≈ 1.77 to 28.3 µM)	1 to 16 (≈ 1.77 to 28.3 µM)	1 to 16 (≈ 1.77 to 28.3 µM)	1 to 16 (≈ 1.77 to 28.3 µM)	1 to 16 (≈ 1.77 to 28.3 µM)	OC(Cn1cncn1)(Cn1nnc(CCN2CCN(c3c(Cl)cccc3Cl)CC2)n1)c1ccc(F)cc1F (stereo unspecified)
0.5 to 16 (≈ 0.919 to 29.4 µM)	0.5 to 16 (≈ 0.919 to 29.4 µM)	0.5 to 16 (≈ 0.919 to 29.4 µM)	0.5 to 16 (≈ 0.919 to 29.4 µM)	0.5 to 16 (≈ 0.919 to 29.4 µM)	0.5 to 16 (≈ 0.919 to 29.4 µM)	0.5 to 16 (≈ 0.919 to 29.4 µM)	CC(n1nnnc1CCN1CCN(c2ccc(Cl)cc2)CC1)C(O)(Cn1cncn1)c1ccc(F)cc1F (stereo unspecified)
1 to 16 (≈ 1.9 to 30.4 µM)	1 to 16 (≈ 1.9 to 30.4 µM)	1 to 16 (≈ 1.9 to 30.4 µM)	1 to 16 (≈ 1.9 to 30.4 µM)	1 to 16 (≈ 1.9 to 30.4 µM)	1 to 16 (≈ 1.9 to 30.4 µM)	1 to 16 (≈ 1.9 to 30.4 µM)	COc1ccccc1N1CCN(CCc2nnn(CC(O)(Cn3cncn3)c3ccc(F)cc3F)n2)CC1 (stereo unspecified)
0.5 to 16 (≈ 0.864 to 27.7 µM)	0.5 to 16 (≈ 0.864 to 27.7 µM)	0.5 to 16 (≈ 0.864 to 27.7 µM)	0.5 to 16 (≈ 0.864 to 27.7 µM)	0.5 to 16 (≈ 0.864 to 27.7 µM)	0.5 to 16 (≈ 0.864 to 27.7 µM)	0.5 to 16 (≈ 0.864 to 27.7 µM)	CC(n1nnnc1CCN1CCN(c2c(Cl)cccc2Cl)CC1)C(O)(Cn1cncn1)c1ccc(F)cc1F (stereo unspecified)
